Results published in PubChem BioAssay AID192 (DTP/NCI, 2004).
Inconclusive results and toxic doses are left out.

System: BDF1 mice, B16 melanoma ip, median survival T/C
Test: NCI In Vivo Anticancer Drug Screen. Data for tumor model B16 Melanoma (intraperitoneal) in B6D2F1 (BDF1) mice
Conditions: endpoint: median survival time, higher = longer survival
Procedure, shortened: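 Each result divides a survival or tumor-size measurement in the compound-treated group by the same measurement in the vehicle group.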

[1] = dose: 3.12 mg/kg/injection, schedule: Q01DX009 (ip), vehicle: saline
[2] = dose: 6.25 mg/kg/injection, schedule: Q01DX009 (ip), vehicle: saline
[3] = dose: 12.5 mg/kg/injection, schedule: Q01DX009 (ip), vehicle: saline
[4] = dose: 25.0 mg/kg/injection, schedule: Q01DX009 (ip), vehicle: saline
[5] = dose: 100.0 mg/kg/injection, schedule: Q01DX009 (ip), vehicle: Klucel (hydroxypropylcellulose) (HPC)
[6] = dose: 200.0 mg/kg/injection, schedule: Q01DX009 (ip), vehicle: Klucel (hydroxypropylcellulose) (HPC)
[7] = dose: 400.0 mg/kg/injection, schedule: Q01DX009 (ip), vehicle: Klucel (hydroxypropylcellulose) (HPC)
[8] = dose: 6.25 mg/kg/injection, schedule: Q01DX009 (ip), vehicle: saline with Tween-80
[9] = dose: 12.5 mg/kg/injection, schedule: Q01DX009 (ip), vehicle: saline with Tween-80
[10] = dose: 25.0 mg/kg/injection, schedule: Q01DX009 (ip), vehicle: saline with Tween-80
[11] = dose: 50.0 mg/kg/injection, schedule: Q01DX009 (ip), vehicle: Klucel (hydroxypropylcellulose) (HPC)
[12] = dose: 6.25 mg/kg/injection, schedule: Q01DX009 (ip), vehicle: Klucel (hydroxypropylcellulose) (HPC)
[13] = dose: 12.5 mg/kg/injection, schedule: Q01DX009 (ip), vehicle: Klucel (hydroxypropylcellulose) (HPC)
[14] = dose: 25.0 mg/kg/injection, schedule: Q01DX009 (ip), vehicle: Klucel (hydroxypropylcellulose) (HPC)
[15] = dose: 100.0 mg/kg/injection, schedule: Q04DX003 (ip), vehicle: Klucel (hydroxypropylcellulose) (HPC)
[16] = dose: 200.0 mg/kg/injection, schedule: Q04DX003 (ip), vehicle: Klucel (hydroxypropylcellulose) (HPC)
[17] = dose: 50.0 mg/kg/injection, schedule: Q04DX003 (ip), vehicle: Klucel (hydroxypropylcellulose) (HPC)

Structure (SMILES): OCCOCCN1CCN(C(c2ccccc2)c2ccc(Cl)cc2)CC1 (configuration not stated)
- T/C [1]: 97 % of control
- T/C [2]: 102 % of control
- T/C [3]: 105 % of control
- T/C [4]: 97 % of control
- T/C (dose: 50.0 mg/kg/injection, schedule: Q01DX009 (ip), vehicle: saline): 100 % of control
- T/C (dose: 100.0 mg/kg/injection, schedule: Q01DX009 (ip), vehicle: saline): 102 % of control

Structure (SMILES): CN(C)CCSc1cc(O)c2c(c1O)C(=O)c1ccccc1C2=O
- T/C (dose: 50.0 mg/kg/injection, schedule: Q01DX009 (ip), vehicle: water): 94 % of control
- T/C (dose: 100.0 mg/kg/injection, schedule: Q01DX009 (ip), vehicle: water): 102 % of control

Structure (SMILES): NC(=O)c1ccccc1C(N)=O
- T/C [5]: 100 % of control
- T/C [6]: 106 % of control
- T/C [7]: 93 % of control

Structure (SMILES): CCOC(=O)c1cnc(NN)nc1Nc1cc(Cl)cc(Cl)c1
- T/C [8]: 97 % of control
- T/C [9]: 101 % of control
- T/C [10]: 91 % of control

Structure (SMILES): CCN(CC)CCCCCOC(=O)c1ccccc1
- T/C [11]: 112 % of control
- T/C [5]: 93 % of control
- T/C [6]: 103 % of control

Structure (SMILES): CN(CCO)C1=C(N2CC2)C(=O)C(N(C)CCO)=C(N2CC2)C1=O
- T/C (dose: 100.0 micrograms/kg/injection, schedule: Q01DX009 (ip), vehicle: saline): 111 % of control
- T/C (dose: 200.0 micrograms/kg/injection, schedule: Q01DX009 (ip), vehicle: saline): 118 % of control

Structure (SMILES): BrCCCC1CCCCC1
- T/C [11]: 92 % of control
- T/C [5]: 100 % of control
- T/C [6]: 92 % of control

Structure (SMILES): CN(N)P(=S)(c1ccccc1)N(C)N
- T/C [12]: 106 % of control
- T/C [13]: 103 % of control

Structure (SMILES): COC1(OC)C2C=CC1CC2
- T/C (dose: 50.0 mg/kg/injection, schedule: Q01DX009 (ip), vehicle: saline with Tween-80): 97 % of control
- T/C (dose: 100.0 mg/kg/injection, schedule: Q01DX009 (ip), vehicle: saline with Tween-80): 97 % of control
- T/C (dose: 200.0 mg/kg/injection, schedule: Q01DX009 (ip), vehicle: saline with Tween-80): 90 % of control
- T/C (dose: 400.0 mg/kg/injection, schedule: Q01DX009 (ip), vehicle: saline with Tween-80): 96 % of control

Structure (SMILES): ClCCN(CC#CCCCC#CCN(CCCl)CCCl)CCCl
- T/C (dose: 1.56 mg/kg/injection, schedule: Q01DX009 (ip), vehicle: saline): 111 % of control
- T/C [1]: 123 % of control
- T/C [3]: 173 % of control
- T/C [4]: 156 % of control

Structure (SMILES): CCOC(=O)NC(C)(C)CC(C)(C)C
- T/C [5]: 106 % of control

Structure (SMILES): CC1(C)[C@H]2CC[C@@]1(C)C(=O)[C@H]2[N+](=O)[O-]
- T/C [5]: 114 % of control
- T/C [6]: 111 % of control
- T/C [7]: 108 % of control

Structure (SMILES): O=Cc1ccc([N+](=O)[O-])s1
- T/C (dose: 3.12 mg/kg/injection, schedule: Q01DX009 (ip), vehicle: saline with Tween-80): 99 % of control
- T/C [8]: 96 % of control
- T/C [9]: 96 % of control
- T/C [10]: 86 % of control

Structure (SMILES): [Cl][Pt+2][Cl].[NH-]CC1(C[NH-])CCCC1
- T/C (dose: 0.5 mg/kg/injection, schedule: Q01DX009 (ip), vehicle: saline): 124 % of control
- T/C (dose: 1.0 mg/kg/injection, schedule: Q01DX009 (ip), vehicle: saline): 112 % of control
- T/C (dose: 2.0 mg/kg/injection, schedule: Q01DX009 (ip), vehicle: saline): 157 % of control

Structure (SMILES): C=C(Cl)CN(CCCC(=O)O)c1cccc(OC)c1
- T/C (dose: 100.0 mg/kg/injection, schedule: Q04DX003 (ip), vehicle: other): 104 % of control
- T/C (dose: 200.0 mg/kg/injection, schedule: Q04DX003 (ip), vehicle: other): 96 % of control
- T/C (dose: 400.0 mg/kg/injection, schedule: Q04DX003 (ip), vehicle: other): 94 % of control

Structure (SMILES): Cc1cc(C)c(-c2c(C)cc(C)c(N)c2C)c(C)c1N
- T/C (dose: 75.0 mg/kg/injection, schedule: Q04DX003 (ip), vehicle: Klucel (hydroxypropylcellulose) (HPC)): 91 % of control

Structure (SMILES): C[As](C)Sc1ncccn1
- T/C (dose: 3.13 mg/kg/injection, schedule: Q01DX009 (ip), vehicle: Klucel (hydroxypropylcellulose) (HPC)): 100 % of control
- T/C [12]: 100 % of control

Structure (SMILES): COc1cccc2c1C(=N)c1c(O)c3c(c(O)c1C2=O)C[C@@](O)(C(=O)CO)C[C@@H]3OC1CC(N)C(O)C(C)O1 (some centres not stated)
- T/C (dose: 25.0 mg/kg/injection, schedule: Q01DX001 (ip), vehicle: water): 230 % of control
- T/C (dose: 50.0 mg/kg/injection, schedule: Q01DX001 (ip), vehicle: water): 292 % of control
- T/C (dose: 100.0 mg/kg/injection, schedule: Q01DX001 (ip), vehicle: water): 307 % of control

Structure (SMILES): CN1C2CCC1CC(OC1c3ccccc3CCc3ccccc31)C2 (configuration not stated)
- T/C [1]: 90 % of control
- T/C [2]: 97 % of control
- T/C [3]: 97 % of control

Structure (SMILES): Nc1nc([Se])c2ncn(C3CC(O)C(CO)O3)c2n1 (configuration not stated)
- T/C [12]: 105 % of control
- T/C [13]: 124 % of control
- T/C [14]: 122 % of control
- T/C [11]: 111 % of control

Structure (SMILES): [N-]=[N+]=CC(=O)CCC(N)C(=O)O (configuration not stated)
- T/C (dose: 0.03 mg/kg/injection, schedule: Q01DX009 (ip), vehicle: saline with Tween-80): 95 % of control
- T/C (dose: 0.05 mg/kg/injection, schedule: Q01DX009 (ip), vehicle: saline): 115 % of control
- T/C (dose: 0.06 mg/kg/injection, schedule: Q01DX009 (ip), vehicle: saline with Tween-80): 91 % of control
- T/C (dose: 0.1 mg/kg/injection, schedule: Q01DX009 (ip), vehicle: saline): 104 % of control
- T/C (dose: 0.12 mg/kg/injection, schedule: Q01DX009 (ip), vehicle: saline with Tween-80): 95 % of control
- T/C (dose: 0.13 mg/kg/injection, schedule: Q01DX009 (ip), vehicle: saline): 102 % of control
- T/C (dose: 6.2 micrograms/kg/injection, schedule: Q01DX009 (ip), vehicle: saline): 91 % of control
- T/C (dose: 12.5 micrograms/kg/injection, schedule: Q01DX009 (ip), vehicle: saline): 92 % of control
- T/C (dose: 25.0 micrograms/kg/injection, schedule: Q01DX009 (ip), vehicle: saline): 109 % of control

Structure (SMILES): Cc1ccc(NS(=O)(=O)c2ccc(F)cc2)cc1Cl
- T/C [5]: 90 % of control
- T/C [15]: 103 % of control
- T/C [6]: 100 % of control
- T/C [16]: 100 % of control
- T/C [7]: 86 % of control
- T/C (dose: 400.0 mg/kg/injection, schedule: Q04DX003 (ip), vehicle: Klucel (hydroxypropylcellulose) (HPC)): 110 % of control

Structure (SMILES): C=CCOc1ccccc1Cl
- T/C [17]: 122 % of control
- T/C [5]: 100 % of control
- T/C [6]: 107 % of control
- T/C [16]: 119 % of control
- T/C [7]: 97 % of control

Structure (SMILES): CC(C)[C@]12O[C@H]1[C@@H]1O[C@]13[C@]1(O[C@H]1C[C@H]1C4=C(CC[C@@]13C)C(=O)OC4)[C@@H]2O
- T/C (dose: 8.0 micrograms/kg/injection, schedule: Q01DX009 (ip), vehicle: saline + alcohol): 114 % of control
- T/C (dose: 12.5 micrograms/kg/injection, schedule: Q01DX009 (ip), vehicle: saline with Tween-80): 119 % of control
- T/C (dose: 16.0 micrograms/kg/injection, schedule: Q01DX009 (ip), vehicle: saline + alcohol): 109 % of control
- T/C (dose: 25.0 micrograms/kg/injection, schedule: Q01DX009 (ip), vehicle: saline with Tween-80): 112 % of control
- T/C (dose: 32.0 micrograms/kg/injection, schedule: Q01DX009 (ip), vehicle: saline + alcohol): 104 % of control
- T/C (dose: 50.0 micrograms/kg/injection, schedule: Q01DX009 (ip), vehicle: saline with Tween-80): 124 % of control
- T/C (dose: 64.0 micrograms/kg/injection, schedule: Q01DX009 (ip), vehicle: saline + alcohol): 104 % of control
- T/C (dose: 100.0 micrograms/kg/injection, schedule: Q01DX009 (ip), vehicle: saline with Tween-80): 107 % of control
- T/C (dose: 200.0 micrograms/kg/injection, schedule: Q01DX009 (ip), vehicle: saline with Tween-80): 122 % of control
- T/C (dose: 400.0 micrograms/kg/injection, schedule: Q01DX009 (ip), vehicle: saline with Tween-80): 100 % of control

Structure (SMILES): Cn1c(=O)c2[nH]c(Cc3ccsc3)nc2n(C)c1=O
- T/C [13]: 104 % of control
- T/C [14]: 107 % of control
- T/C [11]: 96 % of control

Structure (SMILES): NC(=O)c1cc([N+](=O)[O-])c(Cl)c([N+](=O)[O-])c1Cl
- T/C (dose: 4.0 mg/kg/injection, schedule: Q01DX009 (ip), vehicle: Klucel (hydroxypropylcellulose) (HPC)): 93 % of control
- T/C (dose: 8.0 mg/kg/injection, schedule: Q01DX009 (ip), vehicle: Klucel (hydroxypropylcellulose) (HPC)): 92 % of control

Structure (SMILES): CCOC(=O)/C(=C\c1ccccc1)P(=O)(OCC)c1ccccc1 (configuration not stated)
- T/C (dose: 25.0 mg/kg/injection, schedule: Q04DX003 (ip), vehicle: Klucel (hydroxypropylcellulose) (HPC)): 93 % of control
- T/C [17]: 95 % of control
- T/C [15]: 94 % of control
